How the values were obtained:
Arginase [1] = target: T1, Arginase (Plasmodium falciparum, UniProt Q8I384); assay: Binding affinity to Plasmodium falciparum arginase
T1 sequence (Q8I384 whole entry): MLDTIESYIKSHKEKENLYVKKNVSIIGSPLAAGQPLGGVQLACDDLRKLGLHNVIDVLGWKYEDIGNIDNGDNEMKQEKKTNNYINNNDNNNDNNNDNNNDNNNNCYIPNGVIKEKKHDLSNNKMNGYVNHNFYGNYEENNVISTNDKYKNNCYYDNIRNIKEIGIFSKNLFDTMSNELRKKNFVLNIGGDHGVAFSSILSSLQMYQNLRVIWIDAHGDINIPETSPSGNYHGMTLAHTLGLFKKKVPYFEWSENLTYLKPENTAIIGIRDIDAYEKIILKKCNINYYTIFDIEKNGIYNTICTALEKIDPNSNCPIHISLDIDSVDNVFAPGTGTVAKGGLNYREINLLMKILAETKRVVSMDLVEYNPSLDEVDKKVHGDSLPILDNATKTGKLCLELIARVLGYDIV

[2] = target: T2, Arginase-2, mitochondrial (Homo sapiens, UniProt P78540); assay: Binding affinity to human arginase 2
T2 sequence (P78540 whole entry): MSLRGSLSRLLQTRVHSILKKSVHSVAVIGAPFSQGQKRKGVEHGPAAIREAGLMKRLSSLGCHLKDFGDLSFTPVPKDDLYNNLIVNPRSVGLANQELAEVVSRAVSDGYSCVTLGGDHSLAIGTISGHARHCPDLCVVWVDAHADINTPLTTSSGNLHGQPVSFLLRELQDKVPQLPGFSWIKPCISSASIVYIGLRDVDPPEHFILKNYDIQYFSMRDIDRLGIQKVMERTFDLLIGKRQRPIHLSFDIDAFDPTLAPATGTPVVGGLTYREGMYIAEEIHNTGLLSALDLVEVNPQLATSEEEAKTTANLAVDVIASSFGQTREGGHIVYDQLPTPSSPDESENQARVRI

Arginase [3] = target: T1, Arginase; assay: Inhibition of Plasmodium falciparum arginase using L-arginine as substrate by colorimetric assay
Arginase-1 [4] = target: T3, Arginase-1 (Homo sapiens, UniProt P05089); assay: Binding affinity to human arginase 1
T3 sequence (P05089 whole entry): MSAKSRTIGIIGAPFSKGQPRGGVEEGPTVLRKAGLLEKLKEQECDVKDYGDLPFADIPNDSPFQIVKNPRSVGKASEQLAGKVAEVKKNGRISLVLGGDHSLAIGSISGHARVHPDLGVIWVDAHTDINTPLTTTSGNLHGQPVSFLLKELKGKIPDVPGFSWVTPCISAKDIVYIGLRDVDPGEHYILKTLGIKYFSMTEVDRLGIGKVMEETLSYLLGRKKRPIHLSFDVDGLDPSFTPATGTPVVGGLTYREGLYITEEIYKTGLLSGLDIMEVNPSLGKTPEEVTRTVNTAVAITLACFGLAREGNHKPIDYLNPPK

Arginase-1 [5] = target: T3, Arginase-1; assay: Binding affinity to human arginase 1 using L-arginine as substrate by surface plasmon resonance assay

Structure (SMILES) | Kd (Arginase [1]) [µM] | Ki [2] [µM] | Ki (Arginase [3]) [µM] | Kd (Arginase-1 [4]) [µM] | Kd (Arginase-1 [5]) [µM]
N[C@@H](CCCCB(O)O)C(=O)O | 11 | 0.0085 | 10 | 0.005 | 0.018
CC(N)(CCCCB(O)O)C(=O)O (racemic) | – | – | 260 | – | 0.88
NC(CCCCB(O)O)(C(=O)O)C(F)F (racemic) | – | – | – | – | 34

Reference: ChEMBL document CHEMBL1811917 (J Med Chem, 2011)
